Results published in patent US20230190887A1, “TARGETING G3BP AGGREGATION TO PREVENT NEURODEGENERATION” (priority 2019, published 2023).
Entries after “also recorded” stand apart in the source; their conditions may differ.

How the values were obtained:
[1] = tested on: E18 cortical neurons; experiment: Aβ-induced neurite degeneration of cortical neurons; type: cell-based, rat; conditions: DIV7 E18 cortical neurons, 1 μM Aβ oligomer 16-18 hours, with 10 μM peptide
Method: To test whether the triggering disassembly of stress granules would be protective in Parkinson's and Alzheimer's disease, the inventors employed 1-methyl-4-phenylpyridinium (MPP+)-induced and amyloid β (Aβ)-mediated neurotoxicity models. Rat embryonic day 18 (E18) midbrain neurons cultured for 7 days were treated for 16-18 hours with 100 μM MPP+, see FIGS. 1A and B, while E18 cortical neurons were treated with 1 μM Aβ oligomer, see FIGS. 2A-2B, with or without 10 μM G3BP1 190-208 or 168-189 peptide. As a control, the inventors used non-treated neurons.
FIG. 2: Cell permeable G3BP1 190-208 peptide blocks pathological degeneration beta-amyloid-induced neurotoxicity in cortical neurons. (A) Representative images of NF-labeled (white) E18 cortical neurons. DIV7 cortical neurons were treated with […] (ii) or control (i) and 10 μM 190-208 G3BP1 peptide (iv) or 10 μM 168-189 control peptide (iii) [scale bar=100 μm]. (B) Quantitation of degeneration in cortical neurons treated with 1 μM Aβpeptide-treated neurons after addition of 190-208 G3BP1 or 168-189 control peptide. Solvent treated cells were used as control. […] (N≥95 over 3 cultures; by one-way ANOVA with Tukey HSD post-hoc).

[2] = tested on: G3BP1-mCherry aggregates in DRG axons; experiment: Live cell imaging of G3BP1-mCherry granules; type: cell-based, rat; conditions: 10 μM peptide, 15 min
Method: Live cell imaging for G3BP1-mCherry granules. DRG neurons were transfected with G3BP1-mCherry, and 36 h later distal axons were imaged using Leica SP8X confocal microscope with environmental chamber maintained at 37° C., 5% CO2 (with 63×/1.4 NA oil immersion objective). G3BP1-mCherry signals were imaged as single optical planes in the axon shaft every 2 s for 100 frames (at 540 nm excitation and 23% white light laser power; 565-597 nm emission). To study the effect of the G3BP1 190-208 or 168-189 peptide, 10 μM FITC-conjugated peptide was added to the media and 15 min later imaging was continued.
For quantitation of G3BP1-mCherry aggregates density and size, a 100 μm of the axon shaft was considered (≥200 μm from cell body). Thresholding was applied to acquired image sequences using ImageJ to generate binary masks.
ImageJ particle analyzer was used for analysis. G3BP1 aggregates with area≥1 μm^2 were considered as SG-like structures. For analyzing the G3BP1 aggregate velocity, ImageJ Trackmate plug-in was used.

[3] = tested on: TDPΔNLS MN-muscle co-cultures; experiment: Co-culture contraction analysis; type: cell-based, mouse; conditions: 20 μM G3BP1 peptides in NMJ compartment
Method: Muscles in co-culture were kept in BA medium for 7 days. To aid NMJ formation, media in all compartments was then replaced to poor neurobasal (PNB) medium, which contained only 1% P/S and 1% Glutamax. Doxycycline was applied to TDP-43ΔNLS cultures only at the proximal MN compartment, in a concentration of 0.1 μg/mL, immediately after plating and throughout the entire experimental timeline. For TDPΔNLS recovery experiments (FIGS. 7-8), Doxycline was […] at the proximal MN compartment after 5 DIV, and the cultures were grown until 11 DIV. […] NMJ activity was assessed by quantifying the percent of innervated and contracting myocytes in co-culture as previously described36. Briefly, after 12 days in co-culture, phase-contrast time lapse image series were acquired at a frame rate of 25 frames-per-second (25 FPS) using a X20 air objective. During imaging, cultures were maintained in controlled temperature and CO2 environment. For obtaining contraction time traces, we used the “Time Series Analyzer V3” plugin for FIJI ImageJ V.2.0.0, and marked a region of interest on a small, high contrast and mobile region on the muscle, and then obtained the mean values for each time point.

[4] = tested on: G3BP1, TIA1, FMRP, FXR, TDP43 and FUS-TLS aggregates in E18 cortical neurons; experiment: RNA binding protein aggregates along axons of Aβ oligomer-treated cortical neurons; type: cell-based, rat; conditions: 1 μM Aβ oligomer 2 hours, then peptide for additional 4 hours
Method: The data in FIGS. 13A-F and 14A-F raise the possibility that stress granule targeting therapies like the cell permeable G3BP1 190-208 peptide may decrease or even prevent loss of neurons across different types of neurodegenerative diseases. To address this possibility, the current disclosure asked if the cell permeable G3BP1 190-208 peptide could disassemble pathological protein aggregates in neurons. For this, 7 day cortical neuron cultures were treated with 1 μM A[…] oligomer for 2 hours and then treated with cell permeable G3BP1 190-208 peptide or a scramble sequence cell permeable peptide for an additional 4 hours. […] Thus, the cell permeable G3BP1 190-208 peptide can not only prevent RNA binding protein aggregation in axons after exposure to neurotoxins associated AD and PD, but it can also trigger disassembly of these pathological aggregates after they begin to form.
Representative confocal images for G3BP1. […] Quantifications for co:localization of FMRP, FXR, TDP43, FUS-TLS and TIA1 with G3BP1 in axons of E18 cortical neurons treated as in C are shown as average Pearson's coefficient±SEM (N≥120 aggregates over three repetitions and *p≤0.01, **p≤0.005, ***p≤0.001 for entire population distributions by Fishers exact test for FIG. 15B and FIG. 15D; […] neurons over 3 repetitions and *p≤0.01 **p≤0.005, ***p≤0.001 by one-way ANOVA with Tukey HSD post-hoc for FIG. 15E).

YGNKKNNNQNNN-VVEPEPEPEPEPEPEPVSE [G3BP1 190-208 peptide]
neurite degeneration ([1]; listed as 190-208 peptide): significant rescue from Aβ-induced neurite degeneration
neurite degeneration ([1]; listed as G3BP1 190-208): prevented neurite degeneration
density of axonal G3BP1-mCherry aggregates along 100 μm axon [2]: striking decrease
motility of remaining G3BP1-mCherry aggregates [2]: greater motility
size of G3BP1-mCherry aggregates (SG-like structures) [2]: significantly smaller
percent of innervated muscles that contract [3]: reversed
TIA1, FMRP, FXR, TDP43 and FUS-TLS colocalization with G3BP1 [4]: significantly decreased
size of G3BP1, TIA1, FMRP, FXR, TDP43 and FUS-TLS aggregates along axons [4]: significantly decreased size; also recorded: reduction in amyloid beta treatment dependent G3BP1-associated protein aggregates
